Measured values: ChEMBL document CHEMBL1909046, “DrugMatrix in vitro pharmacology data”
Where a SMILES comes first, the peptide text is derived from it. Bridges are numbered along the chain shown (N, C = ends). [ ]: non-standard residue; d: D form. The star is where a group is joined. Threoninol(2S,3R) = C[C@@H](O)[C@H](CO)N*

Tests used:
[1] = molecular target: cGMP-specific 3',5'-cyclic phosphodiesterase (Homo sapiens, UniProt O76074); test: DRUGMATRIX: Phosphodiesterase PDE5 enzyme inhibition (substrate: [3H]cGMP + cGMP); format: tissue-based; details: platelet; Not Active = under 50% inhibition at 10 µM
[2] = molecular target: Sigma non-opioid intracellular receptor 1 (Homo sapiens, UniProt Q99720); test: DRUGMATRIX: Sigma1 radioligand binding (ligand: [3H] Haloperidol); format: cell membranes, Jurkat, Membrane; details: jurkat; Not Active = under 50% inhibition at 10 µM
Sigma non-opioid intracellular receptor 1, sequence (Q99720 whole entry): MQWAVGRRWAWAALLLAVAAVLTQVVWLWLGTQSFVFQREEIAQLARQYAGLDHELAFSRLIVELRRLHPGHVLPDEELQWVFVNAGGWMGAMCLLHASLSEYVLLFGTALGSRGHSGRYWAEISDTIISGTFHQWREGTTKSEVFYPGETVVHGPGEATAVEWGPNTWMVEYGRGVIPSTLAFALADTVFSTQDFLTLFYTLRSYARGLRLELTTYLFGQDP

[3] = DRUGMATRIX: Calcium Channel Type L, Dihydropyridine radioligand binding (ligand: [3H] Nitrendipine); format: cell membranes, Rattus norvegicus, Wistar, Cerebral cortex, Membrane; details: Not Active = under 50% inhibition at 10 µM
[4] = molecular target: Cytochrome P450 2D6 (Homo sapiens, UniProt P10635); details: bti-tn-5b1-4; further: in other assays of this panel Not Active means under 50% inhibition at 10 µM
Cytochrome P450 2D6, sequence (P10635 whole entry): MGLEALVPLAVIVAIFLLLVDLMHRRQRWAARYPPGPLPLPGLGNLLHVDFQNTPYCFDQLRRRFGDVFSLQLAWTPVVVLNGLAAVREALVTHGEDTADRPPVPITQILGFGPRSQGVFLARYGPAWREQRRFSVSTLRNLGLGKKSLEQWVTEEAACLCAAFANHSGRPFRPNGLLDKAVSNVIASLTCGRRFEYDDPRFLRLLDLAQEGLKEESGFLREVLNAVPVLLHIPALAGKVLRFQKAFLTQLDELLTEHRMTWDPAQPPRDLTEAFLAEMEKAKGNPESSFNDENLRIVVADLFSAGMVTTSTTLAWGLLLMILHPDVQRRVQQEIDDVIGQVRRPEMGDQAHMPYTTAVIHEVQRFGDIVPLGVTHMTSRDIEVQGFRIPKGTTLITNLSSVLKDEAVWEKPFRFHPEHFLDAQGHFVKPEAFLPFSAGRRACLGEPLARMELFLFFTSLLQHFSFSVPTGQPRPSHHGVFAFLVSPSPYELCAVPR

[5] = molecular target: Prostaglandin G/H synthase 1 (Homo sapiens, UniProt P23219); test: biochemical; format: tissue-based, Platelet;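 further: inhibition of COX-1 enzyme activity, with arachidonic acid supplied as substrate; in other assays of this panel Not Active means under 50% inhibition at 10 µM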
Prostaglandin G/H synthase 1, sequence (P23219 whole entry): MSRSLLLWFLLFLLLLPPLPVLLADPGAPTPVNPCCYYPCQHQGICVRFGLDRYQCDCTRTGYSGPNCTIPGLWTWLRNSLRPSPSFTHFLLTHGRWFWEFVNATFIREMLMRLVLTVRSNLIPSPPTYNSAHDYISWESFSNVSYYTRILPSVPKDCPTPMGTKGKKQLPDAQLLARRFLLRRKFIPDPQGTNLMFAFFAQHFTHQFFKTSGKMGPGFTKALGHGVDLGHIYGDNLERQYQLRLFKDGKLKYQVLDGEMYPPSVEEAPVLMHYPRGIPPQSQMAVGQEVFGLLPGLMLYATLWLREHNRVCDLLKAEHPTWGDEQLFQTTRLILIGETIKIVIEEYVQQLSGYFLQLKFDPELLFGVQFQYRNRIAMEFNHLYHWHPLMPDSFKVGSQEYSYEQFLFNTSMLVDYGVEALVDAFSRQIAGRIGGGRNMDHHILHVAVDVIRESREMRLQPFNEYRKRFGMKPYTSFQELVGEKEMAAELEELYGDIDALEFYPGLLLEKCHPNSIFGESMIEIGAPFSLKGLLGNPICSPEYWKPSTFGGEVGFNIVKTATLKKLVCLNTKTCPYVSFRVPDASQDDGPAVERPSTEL

[6] = molecular target: Glycine receptor (Rattus norvegicus, UniProt P22771+P24524+P07727+P20781); format: cell membranes, Wistar, Spinal cord, Membrane; further: in other assays of this panel Not Active means under 50% inhibition at 10 µM
[7] = DRUGMATRIX: Nicotinic Acetylcholine radioligand binding (ligand: [125I] Epibatidine); format: cell membranes, Membrane; details: imr-32; Not Active = under 50% inhibition at 10 µM

| Compound | IC50 [1] | IC50 [2] | IC50 [3] | Ki [3] | IC50 [4] | Ki [4] | IC50 ([5]; platelet) | IC50 [6] | IC50 [7] | Ki [7] | Ki [1] | Ki [2] | Ki ([5]; platelet) | Ki [6] | IC50 ([5]; read-out: IC50) [µM] |
| --- | --- | --- | --- | --- | --- | --- | --- | --- | --- | --- | --- | --- | --- | --- | --- |
| CCCC(CCC)C(=O)O [VALPROIC ACID] | Not Active | Not Active | Not Active | Not Active | Not Active | Not Active | Not Active | Not Active | Not Active | Not Active | – | – | – | – | – |
| S=C=Nc1cccc2ccccc12 [1-NAPHTHYLISOTHIOCYANATE] | Not Active | Not Active | Not Active | Not Active | Not Active | Not Active | Not Active | Not Active | Not Active | Not Active | – | – | – | – | – |
| Cc1ccccc1C(=O)N1CCC(Cc2ccccc2)CC1 | Not Active | Not Active | Not Active | Not Active | Not Active | Not Active | Not Active | Not Active | Not Active | Not Active | – | – | – | – | – |
| C[C@@H](O)[C@H](CO)NC(=O)[C@@H]1CSSC[C@H](NC(=O)[C@H](N)Cc2ccccc2)C(=O)N[C@@H](Cc2ccccc2)C(=O)N[C@H](Cc2c[nH]c3ccccc23)C(=O)N[C@@H](CCCCN)C(=O)N[C@@H]([C@@H](C)O)C(=O)N1 (H-[dF]CF[dW]KTC-{Threoninol(2S,3R)}; disulfide 2-7) | Not Active | Not Active | Not Active | Not Active | Not Active | Not Active | Not Active | Not Active | Not Active | Not Active | – | – | – | – | – |
| Cc1nccn1CC1CCc2c(c3ccccc3n2C)C1=O (centres undefined) [ONDANSETRON] | Not Active | Not Active | Not Active | Not Active | Not Active | Not Active | Not Active | Not Active | Not Active | Not Active | – | – | – | – | – |
| C#C[C@]1(O)CC[C@H]2[C@@H]3CCc4cc(OC)ccc4[C@H]3CC[C@@]21C [MESTRANOL] | Not Active | Not Active | Not Active | Not Active | Not Active | Not Active | Not Active | Not Active | Not Active | Not Active | – | – | – | – | – |
| COc1cc2c(c3oc(=O)c4c(c13)CCC4=O)[C@@H]1C=CO[C@@H]1O2 [AFLATOXIN] | Not Active | Not Active | Not Active | Not Active | Not Active | Not Active | Not Active | Not Active | Not Active | Not Active | Not Active | Not Active | Not Active | Not Active | – |
| CC1(C)O[C@@H]2C[C@H]3[C@@H]4C[C@H](F)C5=CC(=O)CC[C@]5(C)[C@H]4[C@@H](O)C[C@]3(C)[C@]2(C(=O)CO)O1 [FLURANDRENOLIDE] | Not Active | Not Active | Not Active | Not Active | Not Active | Not Active | Not Active | Not Active | Not Active | Not Active | – | – | – | – | – |
| CC1(C)O[C@@H]2C[C@H]3[C@@H]4C[C@H](F)C5=CC(=O)C=C[C@]5(C)[C@@]4(F)[C@@H](O)C[C@]3(C)[C@]2(C(=O)CO)O1 [FLUOCINOLONE ACETONIDE] | Not Active | Not Active | Not Active | Not Active | Not Active | Not Active | Not Active | Not Active | Not Active | Not Active | – | – | – | – | – |
| O=c1ccc2ccccc2o1 [COUMARIN] | Not Active | Not Active | Not Active | Not Active | Not Active | Not Active | Not Active | Not Active | Not Active | Not Active | – | – | – | – | – |
| CN1C(=O)COc2c(C(=O)NC3CN4CCC3CC4)cc(Cl)cc21 (centres undefined) [AZASETRON] | Not Active | Not Active | Not Active | Not Active | Not Active | Not Active | Not Active | Not Active | Not Active | Not Active | – | – | – | – | – |
| C[C@H]1C[C@H]2[C@@H]3CCC4=CC(=O)C=C[C@]4(C)[C@@]3(Cl)[C@@H](O)C[C@]2(C)[C@@]1(O)C(=O)CO [BECLOMETHASONE] | Not Active | Not Active | Not Active | Not Active | Not Active | Not Active | Not Active | Not Active | Not Active | Not Active | – | – | – | – | – |
| Cc1cc(=O)n(-c2ccccc2)n1C [ANTIPYRINE] | Not Active | Not Active | Not Active | Not Active | Not Active | Not Active | Not Active | Not Active | Not Active | Not Active | – | – | – | – | – |
| COc1cccc2c1C(=O)c1c(O)c3c(c(O)c1C2=O)C[C@@](O)(C(=O)CO)C[C@@H]3O[C@H]1C[C@H](N)[C@@H](O)[C@H](C)O1 [EPIRUBICIN] | Not Active | Not Active | Not Active | Not Active | Not Active | Not Active | Not Active | Not Active | Not Active | Not Active | – | – | – | – | – |
| C[C@](O)(CS(=O)(=O)c1ccc(F)cc1)C(=O)Nc1ccc(C#N)c(C(F)(F)F)c1 [(R)-BICALUTAMIDE] | Not Active | Not Active | Not Active | Not Active | Not Active | Not Active | Not Active | Not Active | Not Active | Not Active | – | – | – | – | – |
| COc1ccc2c(c1)[C@]13CCCC[C@@H]1[C@H](C2)N(C)CC3 [DEXTROMETHORPHAN] | Not Active | Not Active | Not Active | Not Active | Not Active | Not Active | Not Active | Not Active | Not Active | Not Active | – | – | – | – | – |
| COP(=O)(OC)OC=C(Cl)Cl [DICHLORVOS] | Not Active | Not Active | Not Active | Not Active | Not Active | Not Active | Not Active | Not Active | Not Active | Not Active | – | – | – | – | – |
| CCN[C@@H]1C[C@H](N)[C@@H](O[C@H]2OC(CN)=CC[C@H]2N)[C@H](O)[C@H]1O[C@H]1OC[C@](C)(O)[C@H](NC)[C@H]1O [NETILMICIN] | Not Active | Not Active | Not Active | Not Active | Not Active | Not Active | Not Active | Not Active | Not Active | Not Active | – | – | – | – | – |
| CN(C)/N=N/c1[nH]cnc1C(N)=O [DACARBAZINE] | Not Active | Not Active | Not Active | Not Active | Not Active | Not Active | Not Active | Not Active | Not Active | Not Active | – | – | – | – | – |
| Oc1ccc(OCc2ccccc2)cc1 [MONOBENZONE] | Not Active | Not Active | Not Active | Not Active | Not Active | Not Active | – | Not Active | Not Active | Not Active | – | – | – | – | 1.02 |
